Source: article PMC12508057, “Discovery of ETI41 and ETI60: novel selective endosomal Toll-like receptor inhibitors for the treatment of autoimmune diseases” (Experimental & Molecular Medicine, 2025)
Read-outs that look alike come from different tables or passages of the source.

Legend:
[1] = system: IL-23-induced psoriasis; test: IL-23-induced psoriasis in mice; type: in vivo, mouse; conditions: 60 mg/kg oral daily; for Improvement of disease symptoms: versus anti-IL-17A antibody IP
Experimental: Six-week-old female C57BL/6J mice were assigned to the following treatment groups: vehicle (n = 5), IMQ (n = 5), ETI41 (n = 4) and ETI60 (n = 5). The mice were obtained from Orient Bio to evaluate the effects of ETI41 and ETI60 on induced psoriasis-like symptoms. This study was approved by the Institutional Animal Care and Use Committee (IACUC; approval no. 2014-0007). Psoriasis was induced using Aldara cream (3M Pharmaceuticals), which was applied topically at 62.5 mg/cm² daily from the day after hair removal until the fourth day. Mice were orally administered 60 mg/kg ETI41 or ETI60 daily commencing on the second day of induction. For IL-23-induced psoriasis, the mice were assigned to the following treatment groups: vehicle (n = 5), IL-23 (n = 5), ETI41 (n = 5), ETI60 (n = 5) and anti-IL-17 Ab (n = 5). Recombinant mouse IL-23 (0.25 mg/kg; BioLegend) was administered via intradermal injection around the ear daily, starting the day after hair removal and continuing until the eighth day. Positive control mice received intraperitoneal (IP) injections of 30 mg/kg anti-mouse IL-17A antibody (BioLegend) on days 2, 5 and 8, while test group mice were administered daily oral doses of 60 mg/kg of ETI41 or ETI60. Changes in body weight and Psoriasis Area and Severity Index (PASI) scores (erythema, scaling and thickness) were recorded daily. Mice were initially anesthetized in an induction chamber with a gas mixture of 4% isoflurane in 70:30 […] and O2, delivered at a flow rate of 0.8 l/min. Subsequently, the isoflurane concentration was reduced to 2%, and the mice were euthanized under anesthesia via endotracheal intubation. Skin samples were collected, fixed and stained with hematoxylin and eosin for histological analysis. Dermal and epidermal thicknesses were measured using a Leica DMi8 microscope (Leica). Immunohistochemical analyses were performed using primary antibodies against CD68 (R&D Systems, MAB101141), Ki-67 (Cell Signaling Technology, 12202), IL-17A (Novus Biologicals, NBP1-72027) and IL-23 (Novus Biologicals, NBP1-76697), followed by detection using biotinylated secondary antibodies (Vector Laboratories) and diaminobenzidine (Vector Laboratories) visualization. Fluorescence measurements for IL-23-induced psoriasis were performed using primary antibodies against CD68 and Ki-67, followed by Alexa Fluor-conjugated secondary antibodies (Life Technologies). Fluorescence was analyzed using a Leica DMi8 microscope.
Anti-IL17A antibody (Ab, 60 µg) was administered by IP injection as a positive control on days 2, 5 and 8. […] CD68 and Ki-67 expression patterns were determined in skin sections from a representative of each group using immunofluorescence. i Ear skin and epidermis thickness, CD68 expression and percentage of Ki-67 cells were examined from 4’,6-diamidino-2-phenylindole-stained cells. Statistical differences between the induced case and other cases were analyzed and verified using a one-tailed Student’s t-test (*P < 0.05, **P < 0.01, ***P < 0.001).
Next, we investigated the therapeutic efficacy of ETI41 and ETI60 in an IL-23-induced mouse model of psoriasis. Psoriasis was induced through intradermal injections of recombinant murine IL-23. As a positive control, an IL-17A antibody was administered intraperitoneally at a dose of 30 mg/kg on days 2, 5 and 8 (Fig. 4f). ETI41 or ETI60 was orally administered daily at a dose of 60 mg/kg. […] These findings indicate that ETI41 and ETI60 effectively alleviate the progression of psoriasis, either through direct involvement of TLR7 or through an indirect involvement of the IL-23–Th17 axis.

[2] = target: T1, murine TLR9 (Mus musculus, UniProt Q9EQU3); test: SPR binding to TLR9
T1 construct: Fc; purchased R&D Systems
Experimental: Surface plasmon resonance (SPR) analysis was conducted using an SR7500DC SPR System (Reichert) with a CMDH chip for human TLR7 and murine TLR9 (R&D Systems) and a Biacore T200 platform (Cytiva) with a CM5 chip for TLR9–ODN binding. The running buffer contained 0.5% DMSO and phosphate-buffered saline, and 50 mM NaOH was used for regeneration. ETI series compounds were serially diluted from 500 μM and tested for binding affinity. Binding curves were analyzed using Scrubber2 and Biacore T200 evaluation softwares. The dissociation constants (KD) were calculated as KD = kd/ka.
SPR confirmed the binding mechanisms of ETI41 and ETI60 with TLR7 and TLR9, respectively, under three conditions: (a) early endosome (pH 7.4), (b) late endosome without CpG (pH 5.5) and (c) late endosome with CpG (pH 5.5). (a) Both ETI41 and ETI60 were measured for parameters indicating binding affinity, including the KD value presented in Table 3, and were further analyzed under conditions (b) and (c), depending on the presence or absence of ligand, to explain the binding mechanism occurring in TLR9.

[3] = acidic pH 5.5 (late endosome), without or with CpG
[4] = neutral pH 7.4 (early endosome)

T1 sequence (Q9EQU3 with tags, fused parts or gaps limits assumed): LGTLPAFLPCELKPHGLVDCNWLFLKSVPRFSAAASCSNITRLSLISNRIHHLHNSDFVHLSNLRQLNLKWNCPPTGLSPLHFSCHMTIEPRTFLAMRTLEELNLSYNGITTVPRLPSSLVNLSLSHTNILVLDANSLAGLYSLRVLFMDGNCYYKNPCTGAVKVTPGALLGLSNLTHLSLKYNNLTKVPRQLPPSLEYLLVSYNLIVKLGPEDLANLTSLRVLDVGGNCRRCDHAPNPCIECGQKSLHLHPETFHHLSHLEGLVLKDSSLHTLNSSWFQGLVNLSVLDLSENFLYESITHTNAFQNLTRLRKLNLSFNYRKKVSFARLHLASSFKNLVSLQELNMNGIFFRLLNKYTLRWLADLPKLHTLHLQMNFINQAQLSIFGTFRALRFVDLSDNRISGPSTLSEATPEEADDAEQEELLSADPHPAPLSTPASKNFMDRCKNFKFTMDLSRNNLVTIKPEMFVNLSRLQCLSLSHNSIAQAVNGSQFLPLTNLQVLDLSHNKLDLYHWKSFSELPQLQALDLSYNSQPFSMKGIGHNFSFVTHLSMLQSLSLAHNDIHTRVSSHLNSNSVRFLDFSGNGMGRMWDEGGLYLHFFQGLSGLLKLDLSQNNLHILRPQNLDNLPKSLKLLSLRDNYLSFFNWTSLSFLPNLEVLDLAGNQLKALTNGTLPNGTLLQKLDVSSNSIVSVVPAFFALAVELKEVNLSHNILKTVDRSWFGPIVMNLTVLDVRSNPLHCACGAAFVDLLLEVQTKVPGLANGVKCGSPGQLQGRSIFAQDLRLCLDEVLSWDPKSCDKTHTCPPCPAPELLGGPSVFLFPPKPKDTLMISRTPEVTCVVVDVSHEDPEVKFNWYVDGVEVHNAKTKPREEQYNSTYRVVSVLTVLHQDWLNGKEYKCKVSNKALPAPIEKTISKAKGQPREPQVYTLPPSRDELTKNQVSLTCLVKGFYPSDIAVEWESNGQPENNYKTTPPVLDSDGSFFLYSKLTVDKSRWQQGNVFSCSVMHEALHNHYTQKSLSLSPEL

SMILES	Body weight [1]	CD68 expression [1]	Ear thickness [1]	Epidermal thickness [1]	Ki-67 keratinocyte proliferation [1]	Improvement of disease symptoms [1]	kd ([2]; Fc-TLR9, pH 7.4) [s⁻¹]	SPR binding to TLR9 [2, 3]	SPR binding to TLR9 [2, 4]	kon ([2]; pH 7.4, read-out: ka) [M⁻¹ s⁻¹]	Kd ([2]; Fc-TLR9, pH 7.4) [µM]	kon ([2]; Fc-TLR9, pH 7.4, read-out: ka) [M⁻¹ s⁻¹]
Cc1cc2c(N)c3c(nc2n1CCCN(C)C)CCCCCC3 [ETI41]	without significant differences	significantly decreased	significantly decreased	significantly decreased	significantly decreased	comparable to or better than the anti-IL-17A antibody	0.191	binding was detected only in the late endosomal state where the natural ligand is present	clear binding affinity	10	–	–
COc1ccc2c3c(N)c4c(nc3n(CCCN(C)C)c2c1)CCCC4 [ETI60]	without significant differences	significantly decreased	significantly decreased	significantly decreased	significantly decreased	comparable to or better than the anti-IL-17A antibody	0.106	binding was detected only in the late endosomal state where the natural ligand is present	clear binding affinity	–	1500	71
